Data taken from patent US10632106B2, “Methods of cancer treatment with 2-(1′H-Indole-3′-carbonyl)-thiazole-4-carboxylic acid methyl ester” (Ariagen, Inc., priority 2009, dated 2020).

Test system: human breast cancer cell line MCF-7 xenografts
Test: MCF-7 xenograft growth inhibition in nude mice
Type: in vivo
Conditions: 20 mg/kg i.p. once daily
Description: All the procedures related to animal handling, care, and the treatment in the study were performed following guidelines approved by an Institutional Animal Care and Use Committee (IACUC) of Crown Bioscience, Inc. (Santa Clara, Calif., USA, a contract research organization we hired) based on the guidance of the Association for Assessment and Accreditation of Laboratory Animal Care (AAALAC). Animals were checked for any effects of tumor growth and drug treatment on normal behavior such as mobility, food and water consumption, body weight gain/loss (gross body weights were measured twice weekly), eye/hair matting, and any other abnormal effect. Death and observed clinical signs were recorded on the basis of the number of animals within each group. Individual animals with a tumor volume exceeding 3,000 mm^3 or animals of a group with a mean tumor volume exceeding 2,000 mm^3 were euthanized. […]
Tumor volume was measured twice weekly in two dimensions using a caliper and the volume was calculated with a formula of: V=0.5 a×b^2, where a and b are the long and short diameter (in mm) of a tumor, respectively. […] The TGD was calculated as: TGD=T−C, where T was the time (in days) required for tumors in a drug treated group to reach a predetermined mean tumor volume and C the time (in days) in the control group to reach the same volume. […]

SMILES: COC(=O)c1csc(C(=O)c2c[nH]c3ccccc23)n1 [ITE, 2-(1′H-indole-3′-carbonyl)-thiazole-4-carboxylic acid methyl ester]
- TGD (Tumor Growth Delay) (at a tumor volume of 500 mm^3): 3 days
- TGI (Tumor Growth Inhibition) (day 19, TGI=ΔT/ΔC×100%): 71%
